Assay results published in patent US10287265B2, “Enantiomers of 8-hydroxyquinoline derivatives and the synthesis thereof” (AVIDIN Co. Ltd., priority 2015, dated 2019).

Legend:
C57BL6/J mice [1] = assay: Short-term memory impairment caused by amyloid peptide aggregates (icv Aβ oligomers), Y maze test; format: in vivo, mouse; conditions: Y maze at day 4 post Aβ
Method: (§1) In vivo experiments were carried out according to the National Institute of Health guidelines for the care and use of laboratory animals, approved by the French Ministry for Research and Technology. In the course of experiments, animals were housed at a standard temperature (22±1° C.) and in a light-controlled environment (lights on from 7 a.m. to 8 p.m.) with ad libitum access to food and water. Male C57BL/6 mice (C57BL/6J Rj, ref. SC-CJ-12w-M, Janvier, France) were housed 5 animals per cage. From one week before the start of the experiment until the end of the experiment, mice were housed individually. Animals were monitored twice-a-day by laboratory personnel (8 a.m. and 4 p.m.). In this project, young (14 weeks old) as well as aged (15-16 months old) mice were used. Experiments were carried out using 12 mice per experimental group.
Investigation of short-term working memory—Y maze test Y maze tests were carried out as previously described. Prior to testing, mice were brought to the experimental room for at least 30 min to acclimatize to experimental room conditions. The Y maze is made of opaque Plexiglas and each arm is 40 cm long, 16 cm high, 9 cm wide and positioned at equal angles. The apparatus was placed in the test room in such a way that it was brightened homogeneously with 12-15 lux in the arms as well as in the central zone. One mouse at a time was placed at the end of one arm and was allowed to move in the maze freely during a 5 min examination. Each arm entry was recorded with those entries being counted where the mouse completely placed its hind paws in the chosen arm. […] Results were calculated as the percentage of the ratio of actual detected alternations to possible alternations (defined as the number of total arm entries minus 2).
For the examination of memory impairment caused by Aβ oligomers, a mouse model developed and validated by SynAging was used. […] At day 4 post Aβ treatment, short-term memory was assessed with the Y maze test. […]
At day 4 post Aβ treatment, short-term memory was assessed with the Y maze test.

C57BL6/J mice [2] = assay: Scopolamine-induced short-term memory impairment, Y maze test; format: in vivo, mouse; conditions: per os gavage; scopolamine 0.6 mg/kg i.p. 30 min prior to Y maze test
Method: as §1
Investigation of short-term working memory—Y maze test Y maze tests were carried out as previously described. Prior to testing, mice were brought to the experimental room for at least 30 min to acclimatize to experimental room conditions. […] Each arm entry was recorded with those entries being counted where the mouse completely placed its hind paws in the chosen arm. […] Results were calculated as the percentage of the ratio of actual detected alternations to possible alternations (defined as the number of total arm entries minus 2). […]

erythropoietin protein = assay: Erythropoietin protein expression in hippocampus and cortex of aged animals, chronic treatment, ELISA; format: in vivo, mouse; conditions: 18-month-old C57BL/6 female mice, 20 mg/l in drinking water for four months
Method: Twenty-four 18-month-old female C57BL/6 mice (Innovo Ltd., Budapest, Hungary) were treated according to the experimental setup described in Example 34. in two groups: Group 1—control group given normal drinking water, Group 2—treated with the R-enantiomer according to Example 2, administered in drinking water (20 mg/l) for four months. Brain preparation was carried out under conditions described in Example 34. Brain samples were washed with 1×PBS to remove blood, then tissues were homogenized in 1×PBS and for 3 days, they were held at −20° C. overnight and 25° C. at daytime every day. After the third round of thawing, samples were centrifuged (5 min, 5000 rpm) and the supernatant was collected for further protein expression studies. Determination of erythropoietin levels of samples was done with Quantikine® ELISA Mouse Erythropoetin (R&D Systems, cat. no.: MEPOOB) according to the manufacturer's protocol. At the end of the test, the developed colour was measured with a THERMO-LABSYSTEMS Multiskan FC Absorbance Plate Reader at 450 nm. Results obtained through ELISA and measured at 450 nm were compared to standard dilution series of purified mouse EPO. Values (pg/ml) obtained based on the dilution series were compared to actual protein content of tissues. Protein content of tissue homogenates was measured with Nanodrop-1000 adjusted for BSA protein, at 280 nm.

[3] = test system: BALB/c ear skin graft on C57BL/6 recipient mice; assay: Mouse skin transplantation, graft rejection scoring; format: in vivo; conditions: 5 mg/kg once every day from transplantation; Example 2 orally, tacrolimus intraperitoneal; scoring at day 9 and day 10
Method: Mouse skin transplantation is a standard method to assay host T cell responses to MHC-disparate donor antigens, which protocol was followed in the present example (Garrod and Cahalan; 2008). Briefly, WT C57BL/6 recipient mice (8-12 weeks old) and WT BALB/c donor mice (8-12 weeks old) were anesthetized with a combination of 10 mg/kg Xylazine and 100 mg/kg Ketamine administered by i.p. injection and 0.05 mg/kg Buprenorphine was administered by subcutaneous injection for analgesia. Ear skin (1.0 cm2) from the WT BALB/c donor mouse was grafted onto the flank of the WT C57BL/6 recipient. The implanted skin (graft) was covered with a sterile bandage, which was removed on day 7 post-transplant.
Recipients received either no treatment (controls), or treated with compound according to Example 2 orally at 5 mg/kg dose, once every day until the end of the experiment from the day of transplantation. […]
Different scores were used to define the quality of the grafts: intact grafts (Score 0), early stages of rejection (Score 1-4, corresponding to first clear signals of graft rejection: 1; >25% rejection rate: 2; >50% rejection rate: 3; >75% rejection rate: 4) up to complete graft rejection (Score 5). […] Average scores with SEM were calculated for each group.

Structure (SMILES): Cc1ccnc(N[C@H](c2ccc(C(F)(F)F)cc2)c2ccc3cccnc3c2O)n1 [Example 2, 7-[(R)-[(4-Methylpyrimidin-2-yl)amino][4-(trifluoromethyl)phenyl]methyl]quinolin-8-ol]
- inhibition of short-term memory impairment caused by fibrillar aggregates of amyloid peptides (C57BL6/J mice [1]; 4 mg/kg body weight per os once daily for four days): inhibited
- inhibition of short-term memory impairment caused by fibrillar aggregates of amyloid peptides, dose dependence (C57BL6/J mice [1]; 0.5, 2 and 4 mg/kg body weight per os once daily for four days): in a dose-dependent manner
- inhibition of scopolamine-induced short-term memory impairment (C57BL6/J mice [2]): inhibited
- EPO protein levels in hippocampal and cortical samples compared to untreated control mice (erythropoietin protein): induced increased EPO protein levels in both hippocampal and cortical samples
- skin graft rejection score (0-5) [3]: smaller score values both on day 9 and on day 10
